Read-outs that look alike come from different tables or passages of the source.
Key:
Albino Swiss mice = test: Biochemical parameters of liver and renal function in serum after chronic administration; assay type: in vivo; conditions: 47.6 mg/kg i.p. for 14 days, unpaired t-test p > 0.05
Procedure: (§1) The experiments were carried out on adult male Albino Swiss mice weighing 20 ± 5 g. […] The mice from the control group (8 mice) received 0.9% NaCl solution i.p. once daily for 14 days.
(§2) After completion of the experimental procedure (on the 15th day—24h after the last injection), the animals were decapitated. Their livers and kidneys were collected for histopathological examination, while blood was drawn for biochemical and morphological tests and for HPLC-FL determination of TP-315 in serum.
For the determination of biochemical parameters (ALT, AST, GGT, creatinine, urea), whole blood was collected in clotting activator tubes (Sarstadt, Nümbrecht, Germany). To obtain serum, blood tubes were centrifuged at 4200 RPM for 10 min. Biochemical determinations were performed on an ERBA XL 640 analyzer (ERBA Mannheim, Germany) according to the manufacturer’s standard procedure. Whole blood for the determination of morphological parameters was collected in ethylenediaminetetraacetic acid (EDTA) tubes (Sarstadt, Nümbrecht, Germany). Morphological parameters were determined on the MYTHIC 18 Cormay analyzer (Cormay, Lublin, Poland) according to the manufacturer’s standard procedure.

[1] = Quantification of TP-315 in mouse serum by HPLC-FL; assay type: in vivo; conditions: male, Albino Swiss, ip, mice, 47.6 mg/kg i.p. for 14 days, 24 h after the last injection, mean ± SD, read-out: Mean measured concentration of TP-315 in the plasma of the mice
Procedure: as §1
as §2, with “serum. […]” for “serum.”
Serum samples for recovery study and quantification of the examined compound using the standard addition method were prepared by spiking 0.1 mL of TP-315 free serum or the serum of treated mice with 0.4 mL deionized water and 0.5 mL of the appropriate standard solution, providing a calibration range between 0.0125–0.05 mg/L (0.0125, 0.025, 0.0375, and 0.05 mg/L) and QC levels of 0.06, 0.12, and 0.18 mg/L. Investigated serum samples were treated in the same manner as the QCs. […]
The HPLC analysis was carried out using an Elite LaChrom HPLC Merck-Hitachi (Merck, Darmstadt, Germany) equipped with a fluorescence detector (L-2485U) and a column thermostat Jetstream 2 Plus (100375, Knauer). […] The fluorescence detection was performed at an excitation of 265 nm and an emission of 411 nm. […]

CYP3A5 = molecular target: T1, CYP3A5 (Homo sapiens, UniProt P20815); test: Vivid CYP450 screening kit, CYP3A5; assay type: biochemical; conditions: 0.015 μg/mL, 20 min incubation, p > 0.05
T1 construct: purchased Thermo Fisher Scientific
Procedure: (§3) Possible inhibitory effect of TP-315 on the catalytic activity of human cytochrome CYP450 enzymes was tested using Vivid CYP450 screening kits (Thermo Fisher Scientific, Waltham, MA, USA) according to the manufacturer’s standard procedure (Vivid BOMCC substrate CYP2B6 blue, Vivid DBOMF substrate CYP3A4 green, Vivid DBOMF substrate CYP3A5 green, Vivid EOMCC substrate CYP2C19 blue, Vivid MOBFC substrate CYP2D6 cyan). The experiment was carried out in the endpoint test mode (reading after 20 min of incubation). The test compound was dissolved in DMSO (starting concentrations, 2.5× concentrated); to avoid the influence of the solvent on the enzyme activity, the results were compared with the solvent control. The influence of TP-315 on the activity of selected enzymes was tested at concentrations of 0.015, 0.1, 0.5, 1, 2.5, 5, and 10 μg/mL. The positive control compounds (inhibitors) were miconazole (for CYP2C19 and CYP2B6), quinidine (for CYP2D6), and ketoconazole (for CYP3A4 and CYP3A5). Inhibitor concentrations were selected according to the manufacturer’s recommendations to achieve ≥90% inhibition. All inhibitors were obtained from Sigma-Aldrich (St. Louis, MO, USA). The BioTek Synergy H1 reader (BioTek Instruments, Inc., USA) was used to read the fluorescence according to the manufacturer’s guidelines. The tests were performed in duplicate.

CYP2C19 = molecular target: T2, CYP2C19 (Homo sapiens, UniProt P33261); test: Vivid CYP450 screening kit, CYP2C19; assay type: biochemical; conditions: 0.015 µg/mL, 20 min incubation, p < 0.05
T2 construct: purchased Thermo Fisher Scientific
Procedure: as §3

[2] = tested on: maximal electroshock-induced seizure (MES); set-up: method as in PMID 23291122, PMID 25226229, PMID 25090118; conditions: mice, cited from earlier work
[3] = molecular target: batrachotoxin-binding site on voltage-gated sodium channels; set-up: method as in PMID 25226229, PMID 30594731, PMID 28824309; conditions: read-out: Affinity towards Batrachotoxin-Binding Site on Sodium Channels IC50 ± SEM; cited from earlier work

T2 sequence (P33261 whole entry): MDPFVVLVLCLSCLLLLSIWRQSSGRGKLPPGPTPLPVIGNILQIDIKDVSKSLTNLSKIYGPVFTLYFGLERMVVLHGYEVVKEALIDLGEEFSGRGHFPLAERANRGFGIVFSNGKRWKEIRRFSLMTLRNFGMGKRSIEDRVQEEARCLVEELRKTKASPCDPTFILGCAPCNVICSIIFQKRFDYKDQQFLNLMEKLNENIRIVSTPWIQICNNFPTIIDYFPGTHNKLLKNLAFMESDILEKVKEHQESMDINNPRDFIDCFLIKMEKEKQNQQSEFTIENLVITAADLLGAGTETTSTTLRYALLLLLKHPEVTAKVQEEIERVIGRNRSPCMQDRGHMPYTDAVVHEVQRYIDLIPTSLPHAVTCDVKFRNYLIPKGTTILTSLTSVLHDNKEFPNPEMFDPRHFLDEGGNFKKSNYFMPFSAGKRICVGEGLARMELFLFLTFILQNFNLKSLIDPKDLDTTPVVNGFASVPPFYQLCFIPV
T1 sequence (P20815 whole entry): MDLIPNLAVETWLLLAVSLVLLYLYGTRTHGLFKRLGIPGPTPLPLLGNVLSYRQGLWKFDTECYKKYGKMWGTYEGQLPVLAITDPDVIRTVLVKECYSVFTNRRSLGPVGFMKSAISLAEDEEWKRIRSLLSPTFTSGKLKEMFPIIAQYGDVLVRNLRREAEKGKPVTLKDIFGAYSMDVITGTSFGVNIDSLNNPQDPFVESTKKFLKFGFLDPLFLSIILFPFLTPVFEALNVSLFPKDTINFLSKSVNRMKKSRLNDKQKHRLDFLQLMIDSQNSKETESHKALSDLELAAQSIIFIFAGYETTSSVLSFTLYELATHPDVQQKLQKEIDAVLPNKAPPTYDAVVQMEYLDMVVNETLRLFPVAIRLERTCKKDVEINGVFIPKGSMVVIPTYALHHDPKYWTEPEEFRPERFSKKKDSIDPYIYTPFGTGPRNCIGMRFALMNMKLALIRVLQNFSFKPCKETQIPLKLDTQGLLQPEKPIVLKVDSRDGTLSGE

CCCCCCn1c(-c2cccc(Cl)c2)n[nH]c1=S [TP-315, 5-(3-Chlorophenyl)-4-hexyl-2,4-dihydro-3H-1,2,4-triazole-3-thione]
ALT in serum vs control group (Albino Swiss mice): did not differ statistically significant | AST in serum vs control group (Albino Swiss mice): did not differ statistically significant | Creatinine concentration in serum vs control group (Albino Swiss mice): not statistically significant | GGT in serum vs control group (Albino Swiss mice): did not differ statistically significant | Urea concentration in serum vs control group (Albino Swiss mice): not statistically significant | concentration at 24 h [1]: 14.5 ± 12.5 ng/mL | Inhibition of CYP3A5 activity compared to the control (CYP3A5): did not statistically significantly inhibit | Inhibition of CYP2C19 activity compared to the control (CYP2C19): statistically significantly inhibited | Anticonvulsant Activity in MES Test ED50 ± S.E. ([2]; pretreatment time 15 min): 47.6 ± 3.8 mg/kg | Anticonvulsant Activity in MES Test ED50 ± S.E. ([2]; pretreatment time 30 min): 68.3 ± 10.3 mg/kg | Anticonvulsant Activity in MES Test ED50 ± S.E. ([2]; pretreatment time 60 min): 98.1 ± 16.4 mg/kg | Anticonvulsant Activity in MES Test ED50 ± S.E. ([2]; pretreatment time 120 min): 159.7 ± 21.7 mg/kg | IC50 [3]: 6.21 ± 0.8 µM
